In patent US11382935B2, “Composition for improving cognitive ability and preventing or treating dementia and attention deficit hyperactivity disorder, comprising Galla rhois extract and fraxin as active ingredients” (priority 2018, dated 2022):

Columns and labels:
[1] = test system: Human umbilical vein endothelial cells (HUVECs); test: Antioxidant activity screening; assay type: cell-based; conditions: screening of components with known antioxidant activity
Protocol: Compounds used in the antioxidant activity screening of the present invention are A1 to A7 below:
(§1) Human umbilical vein endothelial cells (HUVECs) were treated with each of the 7 types of antioxidants A1-A7, and then an oxidant, hydrogen peroxide, was administered to analyze the degree of cell damage by an MTT assay, and then the activity of superoxide dismutase and catalase was measured.

HUVECs [2] = test: Production of reactive oxygen species (ROS), DCF fluorescence, in H2O2-treated HUVECs; assay type: cell-based, Human; conditions: for ROS scavenging effect: HUVECs treated with antioxidant, then hydrogen peroxide; for reduction of the H2O2-induced increase in ROS level: H2O2-treated HUVECs, DCF fluorescence, H2O2 increases ROS by 55%
[3] = test system: Human umbilical vein endothelial cells (HUVECs); test: MTT assay of cell damage in hydrogen peroxide-treated HUVECs (cell regeneration effect); assay type: cell-based; conditions: HUVECs treated with antioxidant, then hydrogen peroxide
Protocol: as §1

HUVECs [4] = test: Lipid peroxidation (LPO) assay, MDA amount, in H2O2-exposed cells; assay type: cell-based, Human; conditions: cells exposed to H2O2
[5] = test system: Superoxide dismutase (SOD); test: Superoxide dismutase (SOD) assay in H2O2-treated HUVECs; assay type: cell-based, Human; conditions: treated before H2O2 treatment
Protocol: as §1

[6] = DPPH assay of free radical-scavenging activity; assay type: biochemical; conditions: absorbance at 517 nm for 10 minutes
Protocol: In the present invention, the experiment was carried out with fraxin having a concentration of 0.5 mM, and this concentration is a result of performing an experiment of the free radical-scavenging activity of fraxin using a DPPH assay. A DPPH solution was treated with various concentrations of fraxin (0.02, 0.1 and 0.5 mM), and a change in absorbance was monitored at 517 nm for 10 minutes. The free radical scavenging activity was approximately 10%, 18% or 50% at the fraxin concentration of 0.02, 0.1 or 0.5 mM, respectively, and 0.5 mM was selected for subsequent experiment.

| SOD activity [5] | Structure (SMILES) | antioxidant activity [1] | ROS scavenging effect (HUVECs [2]) | cell regeneration effect [3] | reduction of the H2O2-induced increase in MDA amount (LPO) (HUVECs [4]) | reduction of the H2O2-induced increase in ROS level (HUVECs [2]) | free radical scavenging activity ([6]; 0.02 mM) | free radical scavenging activity ([6]; 0.1 mM) | free radical scavenging activity ([6]; 0.5 mM) |
| --- | --- | --- | --- | --- | --- | --- | --- | --- | --- |
| – | O=C(O)c1cc(O)c(O)c(O)c1 [gallic acid] | highest activity | – | – | – | – | – | – | – |
| – | O=C(CC(O)(CC(=O)OCc1ccc(O[C@@H]2O[C@H](CO)[C@@H](O)[C@H](O)[C@H]2O)cc1)C(=O)O)OCc1ccc(O[C@@H]2O[C@H](CO)[C@@H](O)[C@H](O)[C@H]2O)cc1 [A7, 1,3-bis[4-(3-D-glucopyranosyl)benzyl]citrate] | – | did not show | did not show | – | – | – | – | – |
| – | COC(=O)c1cc(O)c(O)c(O)c1 [A4, methyl gallate] | – | high | high | greatly reduced | 24% | – | – | – |
| increase | COc1cc2ccc(=O)oc2c(O[C@@H]2O[C@H](CO)[C@@H](O)[C@H](O)[C@H]2O)c1O [A3, fraxin] | highest activity | poor | high | greatly reduced | 39% | approximately 10% | ~18% | ~50% |
| – | C[C@@H]1O[C@@H](O[C@@H]2[C@@H](O)[C@H](OCCc3ccc(O)c(O)c3)O[C@H](CO)[C@H]2OC(=O)/C=C/c2ccc(O)c(O)c2)[C@H](O)[C@H](O)[C@H]1O [A6, Acteoside] | – | did not show | did not show | – | – | – | – | – |
